From article PMC5218480 (PLoS ONE, 2017)

Tested on: MV-4-11 cells
Experiment: Gene expression microarray analysis (Affymetrix PrimeView) and GSEA
Format: cell-based, human
Parameters: RFU PODN (11730768_x_at) / Fold change /veh PODN (11730768_x_at) / RFU LINC00158 (11744669_a_at) / Fold change /veh LINC00158 (11744669_a_at) / RFU DUSP10 (11751237_a_at) / Fold change /veh DUSP10 (11751237_a_at) / RFU ID3 (11757404_x_at) / Fold change /veh ID3 (11757404_x_at) / RFU PLEKHG5 (11737974_s_at) / Fold change /veh PLEKHG5 (11737974_s_at) / RFU LRRC4B (11730491_at) / Fold change /veh LRRC4B (11730491_at) / RFU GIMAP4 (11747438_a_at) / Fold change /veh GIMAP4 (11747438_a_at) / RFU KRT8 (11758183_x_at) / Fold change /veh KRT8 (11758183_x_at) / RFU CNN1 (11734310_a_at) / Fold change /veh CNN1 (11734310_a_at) / RFU VPS37D (11726825_at) / Fold change /veh VPS37D (11726825_at) / RFU C10orf10 (11716522_x_at) / Fold change /veh C10orf10 (11716522_x_at) / RFU KIR2DL2 /// KIR2DL4 /// KIR2DL5A /// KIR2DL5B /// KIR2DS1 /// KIR2DS2 /// KIR2DS3 /// KIR2DS4 /// KIR3DL3 /// KIR3DL3 /// KIR3DS1 (11738374_at) / Fold change /veh KIR2DL2 /// KIR2DL4 /// KIR2DL5A /// KIR2DL5B /// KIR2DS1 /// KIR2DS2 /// KIR2DS3 /// KIR2DS4 /// KIR3DL3 /// KIR3DL3 /// KIR3DS1 (11738374_at) / RFU C1QL1 (11718748_at) / Fold change /veh C1QL1 (11718748_at) / RFU TMPRSS4 (11747572_a_at) / Fold change /veh TMPRSS4 (11747572_a_at) / RFU HAMP (11756126_x_at) / Fold change /veh HAMP (11756126_x_at) / RFU RNFT2 (11725882_a_at) / Fold change /veh RNFT2 (11725882_a_at) / RFU NR4A2 (11747474_a_at) / Fold change /veh NR4A2 (11747474_a_at) / RFU ABCC12 (11746883_a_at) / Fold change /veh ABCC12 (11746883_a_at) / RFU TMEM136 (11760407_x_at) / Fold change /veh TMEM136 (11760407_x_at) / RFU CLDN22 /// WWC2 (11732394_at) / Fold change /veh CLDN22 /// WWC2 (11732394_at) / RFU HLA-DPB1 (11760878_x_at) / Fold change /veh HLA-DPB1 (11760878_x_at) / RFU SPINT1 (11716480_a_at) / Fold change /veh SPINT1 (11716480_a_at) / RFU GAP43 (11754022_s_at) / Fold change /veh GAP43 (11754022_s_at) / RFU A4GNT (11735810_at) / Fold change /veh A4GNT (11735810_at) / RFU PRB3 (11715151_x_at) / Fold change /veh PRB3 (11715151_x_at) / RFU TUBB4B (11761932_at) / Fold change /veh TUBB4B (11761932_at) / RFU CAPN14 (11732068_a_at) / Fold change /veh CAPN14 (11732068_a_at) / RFU TMCC2 (11721928_a_at) / Fold change /veh TMCC2 (11721928_a_at) / RFU IRGQ (11745062_a_at) / Fold change /veh IRGQ (11745062_a_at) / RFU FAM174B (11720279_a_at) / Fold change /veh FAM174B (11720279_a_at) / RFU TMPRSS4 (11748680_a_at) / Fold change /veh TMPRSS4 (11748680_a_at) / RFU FAM212B (11763350_a_at) / Fold change /veh FAM212B (11763350_a_at) / RFU PLEKHG5 (11743358_a_at) / Fold change /veh PLEKHG5 (11743358_a_at) / RFU ZSCAN30 (11745921_a_at) / Fold change /veh ZSCAN30 (11745921_a_at) / RFU CMKLR1 (11741424_a_at) / Fold change /veh CMKLR1 (11741424_a_at) / RFU LOC101060620 /// MAPK8IP1 (11723275_at) / Fold change /veh LOC101060620 /// MAPK8IP1 (11723275_at) / RFU SPTSSB (11747773_x_at) / Fold change /veh SPTSSB (11747773_x_at) / RFU PRSS12 (11739890_at) / Fold change /veh PRSS12 (11739890_at) / RFU BIN1 (11741810_x_at) / Fold change /veh BIN1 (11741810_x_at) / RFU WNT11 (11732464_a_at) / Fold change /veh WNT11 (11732464_a_at) / RFU C10orf10 (11716521_a_at) / Fold change /veh C10orf10 (11716521_a_at) / RFU C5orf56 (11738089_at) / Fold change /veh C5orf56 (11738089_at) / RFU CYB561 (11721691_x_at) / Fold change /veh CYB561 (11721691_x_at) / RFU ANKRD19P (11752326_a_at) / Fold change /veh ANKRD19P (11752326_a_at) / RFU OR2T12 /// OR2T33 /// OR2T8 (11738714_s_at) / Fold change /veh OR2T12 /// OR2T33 /// OR2T8 (11738714_s_at) / RFU VCAN (11748164_a_at) / Fold change /veh VCAN (11748164_a_at) / RFU JSRP1 (11732532_at) / Fold change /veh JSRP1 (11732532_at) / RFU KRTAP10-11 (11738290_x_at) / Fold change /veh KRTAP10-11 (11738290_x_at) / RFU MYO3A (11730013_a_at) / Fold change /veh MYO3A (11730013_a_at) / RFU EBF3 (11725865_a_at) / Fold change /veh EBF3 (11725865_a_at) / RFU CAMK2N1 (11719241_x_at) / Fold change /veh CAMK2N1 (11719241_x_at) / RFU C5orf56 (11738088_a_at) / Fold change /veh C5orf56 (11738088_a_at) / RFU OLFML3 (11715873_a_at) / Fold change /veh OLFML3 (11715873_a_at) / RFU LOC100653217 /// NTM (11731650_a_at) / Fold change /veh LOC100653217 /// NTM (11731650_a_at) / RFU MAPK11 (11762145_a_at) / Fold change /veh MAPK11 (11762145_a_at) / RFU FIZ1 (11724087_x_at) / Fold change /veh FIZ1 (11724087_x_at) / RFU OASL (11726364_x_at) / Fold change /veh OASL (11726364_x_at) / RFU SOX15 (11748057_x_at) / Fold change /veh SOX15 (11748057_x_at) / RFU CD79A (11719716_a_at) / Fold change /veh CD79A (11719716_a_at) / RFU HIST1H1D (11736915_at) / Fold change /veh HIST1H1D (11736915_at) / RFU CASKIN2 (11723855_a_at) / Fold change /veh CASKIN2 (11723855_a_at) / RFU LOC730098 (11760151_x_at) / Fold change /veh LOC730098 (11760151_x_at) / RFU OR4N2 (11742367_at) / Fold change /veh OR4N2 (11742367_at) / RFU PRRT2 (11749266_a_at) / Fold change /veh PRRT2 (11749266_a_at) / RFU SNX32 (11753110_a_at) / Fold change /veh SNX32 (11753110_a_at) / RFU CDHR5 (11726645_a_at) / Fold change /veh CDHR5 (11726645_a_at) / RFU RCAN1 (11760418_a_at) / Fold change /veh RCAN1 (11760418_a_at) / RFU FAM167A (11723789_a_at) / Fold change /veh FAM167A (11723789_a_at) / RFU FAM26E (11764081_at) / Fold change /veh FAM26E (11764081_at) / RFU ISYNA1 (11749810_s_at) / Fold change /veh ISYNA1 (11749810_s_at) / RFU ACY1 (11761880_at) / Fold change /veh ACY1 (11761880_at) / RFU 11764098_at / Fold change /veh 11764098_at / RFU SAMD14 (11745864_x_at) / Fold change /veh SAMD14 (11745864_x_at) / RFU NPB (11741838_a_at) / Fold change /veh NPB (11741838_a_at) / RFU TMPRSS6 (11731388_a_at) / Fold change /veh TMPRSS6 (11731388_a_at) / RFU KRTAP10-2 (11738614_at) / Fold change /veh KRTAP10-2 (11738614_at) / RFU ARHGAP8 /// PRR5-ARHGAP8 (11727945_x_at) / Fold change /veh ARHGAP8 /// PRR5-ARHGAP8 (11727945_x_at) / RFU KRTAP5-7 /// NADSYN1 (11734609_at) / Fold change /veh KRTAP5-7 /// NADSYN1 (11734609_at) / RFU RASL12 (11751679_a_at) / Fold change /veh RASL12 (11751679_a_at) / RFU CDKN2B (11736163_a_at) / Fold change /veh CDKN2B (11736163_a_at) / RFU PRF1 (11729649_at) / Fold change /veh PRF1 (11729649_at) / RFU, ZNF638 /// ZNF638-IT1 / Fold change vs veh, ZNF638 /// ZNF638-IT1 / RFU, PANK3 / Fold change vs veh, PANK3 / RFU, SH3YL1 / Fold change vs veh, SH3YL1 / RFU, ZEB2 / Fold change vs veh, ZEB2 / RFU, NRIP1 / Fold change vs veh, NRIP1 / RFU, PTTG1IP / Fold change vs veh, PTTG1IP / RFU, CAPN2 / Fold change vs veh, CAPN2 / RFU, MED14 / Fold change vs veh, MED14 / RFU, SNORA58 / Fold change vs veh, SNORA58 / RFU, C1orf63 / Fold change vs veh, C1orf63 / RFU, LRRFIP1 / Fold change vs veh, LRRFIP1 / RFU, NDUFAF7 / Fold change vs veh, NDUFAF7 / RFU, SLC12A2 / Fold change vs veh, SLC12A2 / RFU, IBTK / Fold change vs veh, IBTK / RFU, ESF1 / Fold change vs veh, ESF1 / Fold change vs veh, TMEM50B / RFU, TAOK1 / Fold change vs veh, TAOK1 / RFU, ACBD3 / Fold change vs veh, ACBD3 / RFU, TMA16 / Fold change vs veh, TMA16 / RFU, RWDD3 / Fold change vs veh, RWDD3 / RFU, BCAT1 / Fold change vs veh, BCAT1 / RFU, EDEM3 / Fold change vs veh, EDEM3 / RFU, TMEM33 / Fold change vs veh, TMEM33 / RFU, WDR75 / Fold change vs veh, WDR75 / RFU, AHCTF1 / Fold change vs veh, AHCTF1 / RFU, TFRC / Fold change vs veh, TFRC / RFU, ZDHHC17 / Fold change vs veh, ZDHHC17 / RFU, NOM1 / Fold change vs veh, NOM1 / RFU, ARL8B / Fold change vs veh, ARL8B / RFU, ZBTB11 / Fold change vs veh, ZBTB11 / RFU, TAMM41 / Fold change vs veh, TAMM41 / RFU, KIAA1704 /// LOC100996395 / Fold change vs veh, KIAA1704 /// LOC100996395 / RFU, ING1 / Fold change vs veh, ING1 / RFU, TRMT61B / Fold change vs veh, TRMT61B / RFU, FUBP3 / Fold change vs veh, FUBP3 / RFU, TP53 / Fold change vs veh, TP53 / RFU, TNKS2 / Fold change vs veh, TNKS2 / RFU, ZFP14 / Fold change vs veh, ZFP14 / RFU, ACTR2 / Fold change vs veh, ACTR2 / RFU, PPP3R1 / Fold change vs veh, PPP3R1 / RFU, PIK3R1 / Fold change vs veh, PIK3R1 / RFU, HNRNPA1 / Fold change vs veh, HNRNPA1 / RFU, RNF170 / Fold change vs veh, RNF170 / RFU, ZNF28 / Fold change vs veh, ZNF28 / RFU, RNGTT / Fold change vs veh, RNGTT / RFU, OGT / Fold change vs veh, OGT / RFU, BRD1 / Fold change vs veh, BRD1 / RFU, MARS / Fold change vs veh, MARS / RFU, ZNF655 / Fold change vs veh, ZNF655 / RFU, FAHD1 / Fold change vs veh, FAHD1 / RFU, BDP1 / Fold change vs veh, BDP1 / RFU, LRRCC1 / Fold change vs veh, LRRCC1 / RFU, ARID1A / Fold change vs veh, ARID1A / RFU, ZNF146 / Fold change vs veh, ZNF146 / RFU, ZNF330 / Fold change vs veh, ZNF330 / RFU, GPN3 / Fold change vs veh, GPN3 / RFU, C9orf123 / Fold change vs veh, C9orf123 / RFU, N4BP2L2 / Fold change vs veh, N4BP2L2 / RFU, ARFIP1 / Fold change vs veh, ARFIP1 / RFU, FAM179B / Fold change vs veh, FAM179B / RFU, BCL10 / Fold change vs veh, BCL10 / RFU, UHRF1BP1L / Fold change vs veh, UHRF1BP1L / RFU, BET1 / Fold change vs veh, BET1 / RFU, CNOT2 / Fold change vs veh, CNOT2 / RFU, ZNF268 / Fold change vs veh, ZNF268 / Fold change vs veh, ZNF507 / RFU, DGCR2 / Fold change vs veh, DGCR2 / RFU, WDSUB1 / Fold change vs veh, WDSUB1 / Fold change vs veh, HSP90B1 /// MIR3652 / RFU, ADSS / Fold change vs veh, ADSS / RFU, GK / Fold change vs veh, GK / RFU, ZNF148 / Fold change vs veh, ZNF148 / RFU, TAF9 / Fold change vs veh, TAF9 / RFU, SLC1A5 / Fold change vs veh, SLC1A5 / RFU, SLMO2 / Fold change vs veh, SLMO2 / RFU, ABCC4 / Fold change vs veh, ABCC4 / RFU, LOC101060439 /// RAP1B / Fold change vs veh, LOC101060439 /// RAP1B / RFU, RFX7 / Fold change vs veh, RFX7 / RFU, GTPBP10 / Fold change vs veh, GTPBP10 / RFU, CNEP1R1 / Fold change vs veh, CNEP1R1 / RFU, BIVM-ERCC5 /// ERCC5 / Fold change vs veh, BIVM-ERCC5 /// ERCC5 / RFU, ILF3 / Fold change vs veh, ILF3 / RFU 11762660_at / Fold change /veh 11762660_at / RFU VCAN (11757783_s_at) / Fold change /veh VCAN (11757783_s_at) / RFU DDX43 (11728927_at) / Fold change /veh DDX43 (11728927_at) / RFU KRT8 (11758188_x_at) / Fold change /veh KRT8 (11758188_x_at) / RFU NKD1 (11759106_at) / Fold change /veh NKD1 (11759106_at) / RFU SRD5A1 (11742802_a_at) / Fold change /veh SRD5A1 (11742802_a_at) / RFU TPSAB1 /// TPSB2 (11721975_s_at) / Fold change /veh TPSAB1 /// TPSB2 (11721975_s_at) / RFU GSTM3 (11746129_a_at) / Fold change /veh GSTM3 (11746129_a_at) / RFU IL23R (11737362_x_at) / Fold change /veh IL23R (11737362_x_at) / RFU TMEM51 (11727254_a_at) / Fold change /veh TMEM51 (11727254_a_at) / RFU PIWIL2 (11732686_x_at) / Fold change /veh PIWIL2 (11732686_x_at) / RFU ORM1 (11744905_x_at) / Fold change /veh ORM1 (11744905_x_at) / RFU CCDC152 (11743942_at) / Fold change /veh CCDC152 (11743942_at) / RFU ECM1 (11717891_a_at) / Fold change /veh ECM1 (11717891_a_at) / RFU IL23R (11748794_a_at) / Fold change /veh IL23R (11748794_a_at) / RFU TNFAIP8L3 (11732012_x_at) / Fold change /veh TNFAIP8L3 (11732012_x_at) / RFU MBOAT4 (11741988_at) / Fold change /veh MBOAT4 (11741988_at) / RFU 11764193_at / Fold change /veh 11764193_at / RFU TMEM53 (11763286_at) / Fold change /veh TMEM53 (11763286_at) / RFU MAGEB2 (11727129_at) / Fold change /veh MAGEB2 (11727129_at) / RFU TMEM200A (11744735_a_at) / Fold change /veh TMEM200A (11744735_a_at) / RFU CCDC152 (11751479_a_at) / Fold change /veh CCDC152 (11751479_a_at) / RFU FAM211A (11726209_a_at) / Fold change /veh FAM211A (11726209_a_at) / RFU RGS16 (11746705_a_at) / Fold change /veh RGS16 (11746705_a_at) / RFU VCAN (11755009_s_at) / Fold change /veh VCAN (11755009_s_at) / RFU RHOB (11743442_s_at) / Fold change /veh RHOB (11743442_s_at) / RFU RGS16 (11720943_a_at) / Fold change /veh RGS16 (11720943_a_at) / RFU RGS16 (11720944_at) / Fold change /veh RGS16 (11720944_at) / RFU, VPS4B / Fold change vs veh, VPS4B / RFU, CREB1 / Fold change vs veh, CREB1 / RFU, DNAJC13 / Fold change vs veh, DNAJC13 / RFU, GNAQ / Fold change vs veh, GNAQ / RFU, CDK5R1 / Fold change vs veh, CDK5R1 / RFU, ZRANB3 / Fold change vs veh, ZRANB3 / RFU, CUL4A / Fold change vs veh, CUL4A / RFU, CCNY / Fold change vs veh, CCNY / RFU, UFL1 / Fold change vs veh, UFL1 / RFU, COG3 / Fold change vs veh, COG3 / RFU, DIAPH2 / Fold change vs veh, DIAPH2 / RFU, SKA2 / Fold change vs veh, SKA2 / RFU, AFF3 / Fold change vs veh, AFF3 / RFU, LMF1 / Fold change vs veh, LMF1 / RFU, IPO11 / Fold change vs veh, IPO11 / RFU, DFFB / Fold change vs veh, DFFB / RFU, FOXP1 / Fold change vs veh, FOXP1 / RFU, CARD8 / Fold change vs veh, CARD8 / RFU, STRN3 / Fold change vs veh, STRN3 / RFU, ADK / Fold change vs veh, ADK / RFU, RASSF2 / Fold change vs veh, RASSF2 / RFU, WIPF1 / Fold change vs veh, WIPF1 / RFU, LARP1B / Fold change vs veh, LARP1B / RFU, RASA1 / Fold change vs veh, RASA1 / RFU, RB1 / Fold change vs veh, RB1 / RFU, PPFIA1 / Fold change vs veh, PPFIA1 / RFU, MAT2A / Fold change vs veh, MAT2A / RFU, CCT5 / Fold change vs veh, CCT5 / RFU, WDR92 / Fold change vs veh, WDR92 / RFU, CUX1 / Fold change vs veh, CUX1 / RFU, TTC7A / Fold change vs veh, TTC7A / RFU, TMEM135 / Fold change vs veh, TMEM135 / RFU, DEPTOR / Fold change vs veh, DEPTOR / RFU, CPM / Fold change vs veh, CPM / RFU, DNAJB6 / Fold change vs veh, DNAJB6 / RFU, CACNA2D3 / Fold change vs veh, CACNA2D3 / RFU, DTX4 / Fold change vs veh, DTX4 / RFU, TFCP2 / Fold change vs veh, TFCP2 / RFU, GMCL1 /// GMCL1P1 / Fold change vs veh, GMCL1 /// GMCL1P1 / RFU, AEBP2 / Fold change vs veh, AEBP2 / RFU, SNHG1 /// SNORD22 /// SNORD25 /// SNORD26 /// SNORD27 /// SNORD28 /// SNORD29 /// SNORD31 / Fold change vs veh, SNHG1 /// SNORD22 /// SNORD25 /// SNORD26 /// SNORD27 /// SNORD28 /// SNORD29 /// SNORD31 / Fold change (Aza/veh), C12orf56 (ProbeSet 11735607_a_at) / Fold change (ACY-1035/veh), C12orf56 (ProbeSet 11735607_a_at) / Fold change (Aza/veh), FGFR1OP (ProbeSet 11751329_s_at) / Fold change (ACY-1035/veh), FGFR1OP (ProbeSet 11751329_s_at) / Fold change (Aza/veh), VPS36 (ProbeSet 11739960_a_at) / Fold change (ACY-1035/veh), VPS36 (ProbeSet 11739960_a_at) / RFU SYPL1 (11715823_x_at) / Fold change /veh SYPL1 (11715823_x_at) / RFU IGFBP7 (11715501_s_at) / Fold change /veh IGFBP7 (11715501_s_at) / RFU REEP3 (11722064_at) / Fold change /veh REEP3 (11722064_at) / RFU IGLL1 (11728026_x_at) / Fold change /veh IGLL1 (11728026_x_at): dose or concentration left out as unconfirmed
Conditions: ProbeSet 11719493_s_at; LIST B

For `Nc1ccc(-c2cccs2)cc1NC(=O)c1ccc2c(c1)cc(C1CC1)n2CCN1CCOCC1` [ACY-1035], the “RFU, TAF9” value was 511.51 RFU.
